Reference: the OPERA property sets (Mansouri et al. 2018)
≈ marks a conversion by molar mass, not a printed value.

Details: not given

Compound	logP
CCOP(=S)(OCC)SCS(=O)(=O)CC	1.99

Same assay, conditions: 20 °C

Compound	solubility
CCOP(=S)(OCC)SCCS(=O)(=O)CC	2880 µM (≈ 883 µg/mL)
CCOP(=S)(OCC)SCS(=O)(=O)CC	2950 µM (≈ 861 µg/mL)
CCOP(=S)(OCC)SCCSCC	59.4 µM (≈ 16.3 µg/mL)
CCOP(=S)(OCC)SCS(=O)CC (stereo not given)	28900 µM (≈ 8000 µg/mL)
CCOP(=O)(OCC)Oc1ccc([N+](=O)[O-])cc1	8720 µM (≈ 2400 µg/mL)
COP(=S)(OC)Oc1cc(Cl)c(Br)cc1Cl	0.82 µM (≈ 0.3 µg/mL)
CCOP(=S)(OCC)Oc1ccc(S(C)(=O)=O)cc1	2300 µM (≈ 746 µg/mL)
CCOP(=S)(OCC)SCS(=O)C(C)(C)C (stereo not given)	3610 µM (≈ 1100 µg/mL)

Same assay, conditions: 25 °C

Compound	solubility
CNC(=O)ON=CC(C)(C)SC	31700 µM (≈ 6030 µg/mL)
